Measured values taken from patent US10787419B2, “Cannabinoid receptor mediating iminopyrazole compounds” (The United States of America, as represented by the …, priority 2012, dated 2020).

Key:
DIO mice = experiment: mice with diet-induced obesity (DIO) treated orally for 14 days; type: in vivo
Protocol: Glucose tolerance and insulin sensitivity were determined on the last 2 days of treatment, using i.p. glucose tolerance and insulin sensitivity tests.

iNOS = iNOS (Mus musculus (Mouse), UniProt P29477); experiment: iNOS activity in lung homogenates from LPS-treated mouse; type: biochemical
Protocol: Cellular iNOS activity was determined after replacing growth medium with reaction mixtures containing appropriate ligands (100 nM). ^& Mice were treated in vivo with vehicle or LPS (25 mg/kg, ip) and sacrificed 6 h later. Crude homogenate prepared from lung were incubated with the indicated ligands and iNOS activity was determined using a radioactivity-based assay.

ZDF rats = experiment: Zucker diabetic fatty (ZDF) rat model of type 2 diabetes; type: in vivo; conditions: 10 mg/kg/day oral gavage, 7 days
[1] = in vivo metabolism, metabolite generation in plasma by LC-MS/MS; conditions: 1 h after oral 10 mg/kg in mice
[2] = system: CCl4-induced liver fibrosis; experiment: CCl4-induced liver fibrosis model in mice; type: in vivo
Protocol: CCL-induced liver fibrosis was generated by intraperitoneal injection of CCL4 (1 ml/kg, diluted 1:10 corn oil), twice weekly for 8 weeks. […] Data represent mean±SEM from 7-8 mice per group. *P<0.05 relative to control. ^#indicates significant treatment effect (P<0.05) relative to CCl4-treated vehicle group.
Fibrosis results from excessive extracellular matrix deposition by myofibroblasts accompanying chronic inflammation and wound healing, and is a key pathogenic process in many organs, including kidneys, lung, and liver.

CB1 = CB1 (Mus musculus (Mouse), UniProt P47746); experiment: radioligand displacement assay in mouse brain membranes (Ki CB1); type: binding
[3] = tissue levels in brain and plasma after administration to mice; conditions: 1 hour after 10 mg/kg to mice; indicating good oral bioavailability
recombinant human AMPK = experiment: recombinant AMPK activity assay; type: biochemical; conditions: rimonabant at 1 μM
Source text: Guanides and biguanides, such as metformin, are effective as antidiabetic agents linked to their AMPK activating properties (Hardie et al., Chem Biol. 2012, […]; 1222-1236). Guanidine-containing analogs in certain embodiments were screened for activation of recombinant human AMPK, using an assay kit (Cyclex, Nagona, Japan), as illustrated in FIG. 8.
Activators of AMP-activated protein kinase (AMPK), such as guanidines of biguanides such as metformin are useful for the treatment of diabetes owing to their AMPK activating property (Hardie, et al., Chem & Biol 2012, 19(10); 1222-1236). Guanidine analogues of certain embodiments were screened for AMPK activation by using a recombinant AMPK activity assay.

[4] = DIO mice, 10 mg/kg/day oral, 14 days
[5] = 10 mg/kg/day orally for 4 weeks

Sequence of CB1 (P47746 whole entry): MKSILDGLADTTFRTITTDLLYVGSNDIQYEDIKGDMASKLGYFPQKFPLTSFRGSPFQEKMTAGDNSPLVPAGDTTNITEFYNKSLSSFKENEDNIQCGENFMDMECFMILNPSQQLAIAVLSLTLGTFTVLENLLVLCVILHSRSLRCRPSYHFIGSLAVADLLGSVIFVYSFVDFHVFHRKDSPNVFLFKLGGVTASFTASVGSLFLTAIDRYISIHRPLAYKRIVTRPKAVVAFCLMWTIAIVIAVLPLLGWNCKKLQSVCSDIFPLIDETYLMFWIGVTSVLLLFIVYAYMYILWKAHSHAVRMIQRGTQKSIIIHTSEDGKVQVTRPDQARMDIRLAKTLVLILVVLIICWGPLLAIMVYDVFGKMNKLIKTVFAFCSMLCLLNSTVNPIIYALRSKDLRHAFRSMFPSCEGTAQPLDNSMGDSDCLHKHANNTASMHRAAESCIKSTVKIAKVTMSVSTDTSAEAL

CC(=N)N/C(=N\S(=O)(=O)c1ccc(Cl)cc1)N1CC(c2ccccc2)C(c2ccc(Cl)cc2)=N1 (racemic) [Compound 2, 3-(4-chlorophenyl)-N′-((4-chlorophenyl)sulfonyl)-N-(1-iminoethyl)-4-phenyl-4,5-dihydro-1H-pyrazole-1-carboximidamine]
hepatic TG (DIO mice; [4]): reduced | hyperinsulinemia (DIO mice; [4]): abrogated | hyperleptinemia (DIO mice; [4]): reduced | food intake reduction (DIO mice; DIO mice, 10 mg/kg/day oral, during the first week): ~20% | glucose intolerance and insulin resistance (DIO mice; DIO mice, 10 mg/kg/day oral, i.p. glucose tolerance and insulin sensitivity tests, last 2 days): nearly completely normalized | In vivo Comments (DIO mice; mouse, in vivo): anti-diabetic anti-obesity | inhibition at 1 µM (iNOS): ~48% | blood glucose (ZDF rats): prevented the increase in blood glucose | insulin and c-peptide levels (ZDF rats): prevented | in vivo metabolism [1]: underwent in vivo metabolism to liberate the amidine moiety and a metabolite | CCl4-induced collagen deposition / liver fibrosis by Sirius red and Masson's trichrome staining [2, 5]: more effective than rimonabant | CCl4-induced elevation of iNOS immunostaining [2, 5]: attenuated | α-SMA, Procollagen-1 and Fibronectin-1 mRNA [2, 5]: more effective than rimonabant

NC=NC(=NS(=O)(=O)c1ccc(Cl)cc1)N1CC(c2ccccc2)C(c2ccc(Cl)cc2)=N1 (stereo not shown) [Compound 1]
Ki (CB1; Table 2): 392 nM

CC(=N)N/C(=N\S(=O)(=O)c1ccc(Cl)cc1)N1C[C@H](c2ccccc2)C(c2ccc(Cl)cc2)=N1 [Compound 2E1]
plasma levels after oral or i.p. administration [3]: comparable | CCl4-induced collagen deposition / liver fibrosis by Sirius red and Masson's trichrome staining [2, 5]: more effective than rimonabant | CCl4-induced elevation of iNOS immunostaining [2, 5]: dramatically attenuated | anti-fibrotic efficacy in liver fibrosis ([2]; compared with rimonabant): higher anti-fibrotic efficacy than rimonabant

N=C(N/C(=N\S(=O)(=O)c1ccc(Cl)cc1)N1CC(c2ccccc2)C(c2ccc(Cl)cc2)=N1)C1CC1 (stereo not shown) [Compound 4]
Ki (CB1; Table 1): 13 nM | Ki (CB1; Table 2): 13 nM

N=C(N/C(=N\S(=O)(=O)c1ccc(Cl)cc1)N1CC(c2ccccc2)C(c2ccc(Cl)cc2)=N1)c1ccccc1 (stereo not shown) [Compound 8]
Ki (CB1; Table 1): 26 nM | Ki (CB1; Table 2): 26 nM

N=C(N/C(=N\S(=O)(=O)c1ccc(Cl)cc1)N1CC(c2ccccc2)C(c2ccc(Cl)cc2)=N1)c1ccncc1 (stereo not shown) [Compound 12]
Ki (CB1; Table 1): 34 nM | Ki (CB1; Table 2): 34 nM

CNC(N)=NC(=NS(=O)(=O)c1ccc(Cl)cc1)N1CC(c2ccccc2)C(c2ccc(Cl)cc2)=N1 (stereo not shown) [Compound 45]
Ki (CB1; Table 2): 327 nM

N=C(N/C(=N\S(=O)(=O)c1ccc(Cl)cc1)N1CC(c2ccccc2)C(c2ccc(Cl)cc2)=N1)N1CCCC1 (stereo not shown) [Compound 55]
Ki (CB1; Table 1): 241 nM | Ki (CB1; Table 2): 241 nM

NN/C(=N\S(=O)(=O)c1ccc(Cl)cc1)N1CC(c2ccccc2)C(c2ccc(Cl)cc2)=N1 (stereo not shown) [Compound 73]
Ki (CB1; Table 1): 33 nM | Ki (CB1; Table 2): 33 nM

Cc1c(C(=O)NN2CCCCC2)nn(-c2ccc(Cl)cc2Cl)c1-c1ccc(Cl)cc1 [rimonabant, reference compound]
AMPK activity (recombinant human AMPK): no effect | CCl4-induced elevation of iNOS immunostaining [2, 5]: not by rimonabant
